Laboratory results reported in ChEMBL document CHEMBL4184309, “Synthesis and biological evaluation of novel carbazole-rhodanine conjugates as topoisomerase II inhibitors” (Bioorg Med Chem Lett, 2018).
Active and inactive are the calls of the source. The rule behind the calls is not given here.

What was measured:
[1] = target: T1, Topoisomerase I (Bos taurus) (UniProt Q2HPH0); test: Inhibition of calf thymus topoisomerase-1 assessed as reduction in relaxation of pBR322 plasmid DNA at 100 uM measured after 30 mins by agarose gel electrophoresis
T1 sequence (whole entry): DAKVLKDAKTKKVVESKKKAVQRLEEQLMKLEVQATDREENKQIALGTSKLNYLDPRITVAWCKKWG

[2] = target: DNA topoisomerase 2-alpha (Homo sapiens) (UniProt P11388); test: Inhibition of human topoisomerase-2 assessed as reduction in relaxation of pBR322 plasmid DNA at 20 uM measured after 30 mins by agarose gel electrophoresis
HeLa = test: Cytotoxicity against human HeLa cells after 48 hrs by MTT assay; format: functional, cell-based
HL-60 = test: Cytotoxicity against human HL60 cells after 48 hrs by MTT assay; format: functional, cell-based; conditions: HL-60, 48 h
A549 = test: Cytotoxicity against human A549 cells after 48 hrs by MTT assay; format: functional, cell-based; conditions: A549, 48 h
K562 = test: Cytotoxicity against human K562 cells after 48 hrs by MTT assay; format: functional, cell-based; conditions: K562, 48 h
[3] = target: DNA topoisomerase 2-alpha (Homo sapiens) (UniProt P11388); test: Poison activity at human topoisomerase-2 assessed as linear DNA formation by measuring relaxation of supercoiled pBR322 plasmid DNA at 50 uM after 6 mins by agarose gel electrophoresis
[4] = target: DNA topoisomerase 1 (Homo sapiens) (UniProt P11387); test: Inhibition of human topoisomerase-1 assessed as DNA intercalation by measuring relaxation of supercoiled pBR322 plasmid DNA after 6 mins by agarose gel electrophoresis
[5] = target: DNA topoisomerase 2-alpha (Homo sapiens) (UniProt P11388); test: Inhibition of human topoisomerase-2 assessed as reduction in relaxation of pBR322 plasmid DNA at 10 uM measured after 30 mins by agarose gel electrophoresis
[6] = target: DNA topoisomerase 2-alpha (Homo sapiens) (UniProt P11388); test: Inhibition of human topoisomerase-2 assessed as DNA intercalation by measuring relaxation of supercoiled pBR322 plasmid DNA at 0.3 to 2.5 uM after 6 mins by agarose gel electrophoresis

Chain of DNA topoisomerase 2-alpha (Homo sapiens) (P11388 whole entry): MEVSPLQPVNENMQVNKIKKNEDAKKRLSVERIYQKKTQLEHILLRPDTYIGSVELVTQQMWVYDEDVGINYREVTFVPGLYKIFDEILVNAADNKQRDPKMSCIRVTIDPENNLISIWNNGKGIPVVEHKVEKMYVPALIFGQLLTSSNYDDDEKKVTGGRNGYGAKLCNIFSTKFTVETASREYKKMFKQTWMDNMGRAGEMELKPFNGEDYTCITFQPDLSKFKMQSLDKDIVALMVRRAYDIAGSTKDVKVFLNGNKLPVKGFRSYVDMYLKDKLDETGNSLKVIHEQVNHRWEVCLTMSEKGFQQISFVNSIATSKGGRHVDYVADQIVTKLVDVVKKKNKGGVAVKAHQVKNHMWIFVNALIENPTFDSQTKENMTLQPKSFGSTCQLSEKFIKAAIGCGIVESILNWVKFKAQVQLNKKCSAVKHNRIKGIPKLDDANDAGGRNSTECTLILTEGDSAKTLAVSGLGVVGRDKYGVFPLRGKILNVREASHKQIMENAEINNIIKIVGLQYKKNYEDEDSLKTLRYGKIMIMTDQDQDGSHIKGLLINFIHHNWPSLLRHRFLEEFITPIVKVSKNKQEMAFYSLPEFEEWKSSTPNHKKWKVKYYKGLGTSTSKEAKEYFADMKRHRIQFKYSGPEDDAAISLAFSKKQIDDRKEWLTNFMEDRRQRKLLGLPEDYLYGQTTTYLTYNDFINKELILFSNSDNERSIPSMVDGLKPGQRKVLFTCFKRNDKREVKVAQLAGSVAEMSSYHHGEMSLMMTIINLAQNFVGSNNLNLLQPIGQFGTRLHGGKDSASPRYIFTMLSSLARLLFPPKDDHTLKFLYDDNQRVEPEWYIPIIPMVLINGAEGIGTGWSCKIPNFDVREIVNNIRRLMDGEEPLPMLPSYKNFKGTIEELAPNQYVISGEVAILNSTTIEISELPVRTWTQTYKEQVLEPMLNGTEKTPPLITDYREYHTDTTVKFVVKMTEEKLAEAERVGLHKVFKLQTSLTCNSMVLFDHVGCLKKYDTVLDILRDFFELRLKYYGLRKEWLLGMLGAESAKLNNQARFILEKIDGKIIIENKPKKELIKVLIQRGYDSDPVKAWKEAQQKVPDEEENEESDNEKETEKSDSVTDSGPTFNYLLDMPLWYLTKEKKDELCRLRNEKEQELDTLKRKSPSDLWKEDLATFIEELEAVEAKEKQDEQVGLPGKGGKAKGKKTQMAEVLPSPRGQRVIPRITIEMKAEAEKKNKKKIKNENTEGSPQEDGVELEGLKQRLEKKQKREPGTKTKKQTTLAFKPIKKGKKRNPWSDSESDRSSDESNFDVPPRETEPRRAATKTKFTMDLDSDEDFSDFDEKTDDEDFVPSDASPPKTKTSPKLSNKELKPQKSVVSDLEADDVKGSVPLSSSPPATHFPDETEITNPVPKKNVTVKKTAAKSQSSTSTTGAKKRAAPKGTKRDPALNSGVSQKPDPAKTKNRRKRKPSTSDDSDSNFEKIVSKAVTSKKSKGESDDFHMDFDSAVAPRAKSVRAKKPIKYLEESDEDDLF
Chain of DNA topoisomerase 1 (Homo sapiens) (P11387 whole entry, looked up): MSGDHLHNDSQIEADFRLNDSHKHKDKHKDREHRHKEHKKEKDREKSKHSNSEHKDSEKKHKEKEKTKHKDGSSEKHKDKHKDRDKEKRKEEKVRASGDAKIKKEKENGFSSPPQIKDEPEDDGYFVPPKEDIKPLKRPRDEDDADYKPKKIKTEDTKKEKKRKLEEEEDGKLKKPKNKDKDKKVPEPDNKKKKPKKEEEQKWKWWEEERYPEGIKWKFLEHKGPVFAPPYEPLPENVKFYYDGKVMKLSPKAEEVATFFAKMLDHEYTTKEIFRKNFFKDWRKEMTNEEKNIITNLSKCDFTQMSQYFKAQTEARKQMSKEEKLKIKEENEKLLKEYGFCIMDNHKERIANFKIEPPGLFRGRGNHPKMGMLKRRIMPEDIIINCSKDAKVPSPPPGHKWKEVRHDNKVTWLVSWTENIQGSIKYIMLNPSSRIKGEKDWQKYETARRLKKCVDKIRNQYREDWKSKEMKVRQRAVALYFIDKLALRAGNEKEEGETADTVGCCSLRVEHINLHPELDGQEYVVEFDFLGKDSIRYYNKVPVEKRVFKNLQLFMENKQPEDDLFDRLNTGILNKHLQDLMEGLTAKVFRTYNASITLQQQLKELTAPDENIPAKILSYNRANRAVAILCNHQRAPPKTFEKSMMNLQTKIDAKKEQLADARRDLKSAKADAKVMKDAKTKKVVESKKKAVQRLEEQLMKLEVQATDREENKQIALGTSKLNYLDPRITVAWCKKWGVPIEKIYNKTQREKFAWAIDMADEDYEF

Row | SMILES | inhibition [1] | inhibition [2] | IC50 (HeLa) [µM] | IC50 (HL-60) [µM] | IC50 (A549) [µM] | IC50 (K562) [µM] | Activity [3] | inhibition [4] | inhibition [5] | inhibition [6]
1 | CC[C@@]1(O)C(=O)OCc2c1cc1n(c2=O)Cc2cc3ccccc3nc2-1 | Active | – | – | – | – | – | – | – | – | –
2 | O=C(O)CN1C(=O)/C(=C/c2ccc3c(c2)c2ccccc2n3Cc2ccc(Br)cc2)SC1=S | inactive | inactive | > 50 | 12.7 | > 50 | 28 | – | – | – | –
3 | Cc1ccc(Cn2c3ccccc3c3cc(/C=C4\SC(=S)N(CC(=O)O)C4=O)ccc32)cc1 | inactive | inactive | > 50 | 17.8 | > 50 | 29.6 | – | – | – | –
4 | N#Cc1ccc(Cn2c3ccccc3c3cc(/C=C4\SC(=S)N(CC(=O)O)C4=O)ccc32)cc1 | inactive | Active | 5.06 | 0.43 | 2.18 | 1.85 | inactive | Dose-dependent effect | – | –
5 | O=C(O)CN1C(=O)/C(=C/c2ccc3c(c2)c2ccccc2n3Cc2ccc([N+](=O)[O-])cc2)SC1=S | inactive | Active | 7.51 | 0.96 | 3.94 | 2.7 | – | – | Active | –
6 | O=C(O)CN1C(=O)/C(=C/c2ccc3c(c2)c2ccccc2n3Cc2ccc(Cl)cc2)SC1=S | inactive | inactive | 28.3 | 4.86 | 16.2 | 13.4 | – | – | – | –
7 | O=C(O)CN1C(=O)/C(=C/c2ccc3c(c2)c2ccccc2n3Cc2cccc(F)c2)SC1=S | inactive | inactive | > 50 | 8.29 | 19.8 | 12.8 | – | – | – | –
8 | O=C(O)CN1C(=O)/C(=C/c2ccc3c(c2)c2ccccc2n3Cc2ccccc2)SC1=S | inactive | inactive | > 50 | 14.6 | 32.2 | 21.4 | – | – | – | –
9 | O=C(O)CN1C(=O)/C(=C/c2ccc3c(c2)c2ccccc2n3Cc2ccccc2F)SC1=S | inactive | inactive | 21.3 | 1.82 | 13.6 | 11.8 | – | – | – | –
10 | O=C(O)CN1C(=O)/C(=C/c2ccc3c(c2)c2ccccc2n3Cc2ccc(F)c(F)c2)SC1=S | inactive | Active | 15.1 | 4.17 | 12.4 | 7.31 | – | – | – | –
11 | O=C(O)CN1C(=O)/C(=C/c2ccc3c(c2)c2ccccc2n3Cc2ccc(Br)cc2F)SC1=S | inactive | Active | 11.7 | 3.51 | 9.44 | 6.92 | – | – | – | –
12 | CC[n+]1c(-c2ccccc2)c2cc(N)ccc2c2ccc(N)cc21 | – | – | – | – | – | – | – | – | – | Active
13 | COc1cc([C@@H]2c3cc4c(cc3[C@@H](O[C@@H]3O[C@@H]5CO[C@@H](C)O[C@H]5[C@H](O)[C@H]3O)[C@H]3COC(=O)[C@H]23)OCO4)cc(OC)c1O [ETOPOSIDE] | – | Active | 32 | – | – | – | – | – | – | –
14 | O=C(O)CN1C(=O)/C(=C/c2ccc3c(c2)c2ccccc2n3Cc2ccc(F)cc2F)SC1=S | inactive | inactive | > 50 | 3.84 | 22.6 | 12.6 | – | – | – | –
15 | O=C(O)CN1C(=O)/C(=C/c2ccc3c(c2)c2ccccc2n3Cc2ccc(F)cc2)SC1=S | inactive | Active | > 50 | 8.57 | > 50 | 19.1 | – | – | – | –
16 | O=C(O)CN1C(=O)/C(=C/c2ccc3c(c2)c2ccccc2n3Cc2ccc(C(F)(F)F)cc2)SC1=S | inactive | Active | 8.2 | 0.71 | 3.4 | 2.16 | inactive | Dose-dependent effect | – | –
